Data reported in article PMC8429736, “Pharmacological characterization of mutant huntingtin aggregate-directed PET imaging tracer candidates” (Scientific Reports, 2021).

What was measured:
Exon1-Q46 aggregates = target: T1, Exon1-Q46 aggregates (Homo sapiens, UniProt P42858, INS38QQQQQQQQQQQQQQQQQQQQQQQQQ); test: RBA competition binding against tritiated 3, Exon1-Q46 aggregates; details: 0.3 nM tritiated 3 as radioligand; 1 µM aggregates; mean ± SD; read-out: IC50 Exon1-Q46
T1 construct: MBP-HTT(1-89)Q46-His(6x); MBP (N, cleaved yes); made in house; host or cells: E. coli BL21 (DE3)
T1 sequence (P42858 with tags, fused parts or gaps with the stated changes): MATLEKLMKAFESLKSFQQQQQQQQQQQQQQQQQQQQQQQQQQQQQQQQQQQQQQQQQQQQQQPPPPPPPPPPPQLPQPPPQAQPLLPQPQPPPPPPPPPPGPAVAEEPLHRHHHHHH
Procedure: (§1) For the competition assay format, Q46 or Exon1-Q46 aggregates at 1 µM (sample volume 150 µL) were pre-incubated in a 96-well round bottom plate (Corning, #3365) for 20 min with test compounds at room temperature (assay buffer 50 mM Tris–HCl pH 8.0, 150 mM NaCl). […] Radioligand 3 at 0.3 nM was added and incubated for 1 h at 37 °C.
(§2) Samples were then transferred onto a 96-well GF/B filter plate (Perkin Elmer, #6005177) using a Filtermate Harvester, aspirated by vacuum and wells washed twice with 200 µL PBS. After drying the filter plates for 1 h at 55 °C the back of the plate was sealed with aluminum cover and 30 µL of scintillation fluid (Perkin Elmer, #6013641) per well was added. The tops of the plates were sealed, and the plates were incubated for 15 min in the dark and counted in a TopCount or MicroBeta2 reader (both Perkin Elmer).
(§3) Raw sample data collected as counts per minute (cpm) were normalized towards assay controls: 0% inhibition = radioligand + protein + vehicle, 100% inhibition = radioligand + protein + 1 µM unlabeled ligand. A 4-parameter […] fit was applied to generate IC50 values.

Q46 aggregates = test: RBA competition binding against tritiated 3, Q46 aggregates; details: 0.3 nM tritiated 3 as radioligand; 1 µM aggregates; mean ± SD
Procedure: as §1, §2, §3

[1] = tested on: beta amyloid/tau aggregates in post-mortem AD patient brain homogenates; test: ADbh RBA competition format; assay type: binding, human; details: for displacement of bound 5: radioligand 5
Procedure: (§4) For RBA in vitro binding assays, brain tissue was sliced (50 µm), weighed and homogenized in PBS (Gibco, 14190-94), 0.1% BSA with a glass pestle (10 strokes) at a concentration of 12–15 mg wet tissue per mL buffer. The crude homogenate concentration was then adjusted to 10 mg/mL (wet tissue) and stored as single-use aliquots at -80 °C.
RBA experiments using Alzheimer’s disease brain homogenates (ADbh RBA) followed the same assay principle as the RBA with recombinant HTT protein, using 0.68 mg/mL homogenate (100 µg per well with 150 µL assay volume) in assay buffer PBS, 0.01% Pluronic F127 (Sigma. P2443) and 1% DMSO after compound addition. […] Incubation at room temperature was conducted for 20 min after compound addition and for 5 h after radioligand addition. For the competition format, raw cpm were normalized towards assay controls as before, to obtain inhibition between 0 and 100%. For saturation binding, raw cpm were converted into nM as before, using a calibration line of total added radioligand, and normalized to mg of added homogenate to finally obtain pmol/mg.

[2] = target: beta amyloid plaques (6E10 antibody) (Homo sapiens, UniProt P05067); test: HR ARG co-registration with 6E10 antibody, human AD brain sections; assay type: binding; details: 10 nM CHDI-180, 10 nM CHDI-626, 0.1 nM PiB, 1 nM T808
Chain of beta amyloid plaques (6E10 antibody) (P05067 672-713 limits assumed): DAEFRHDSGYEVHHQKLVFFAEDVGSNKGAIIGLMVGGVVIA

[3] = target: phospho-Tau tangles (AT8 antibody) (Homo sapiens, UniProt P10636); test: HR ARG co-registration with AT8 antibody, human AD brain sections; assay type: binding; details: 10 nM CHDI-180, 10 nM CHDI-626, 0.1 nM PiB, 1 nM T808
Chain of phospho-Tau tangles (AT8 antibody) (P10636 623-695 limits assumed): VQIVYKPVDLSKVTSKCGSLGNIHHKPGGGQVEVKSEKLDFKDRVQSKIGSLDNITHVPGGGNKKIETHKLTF

[4] = target: beta amyloid/tau aggregates in post-mortem AD patient brain homogenates; test: ADbh RBA saturation (direct) binding; design: species or system human; details: 100 µg homogenate per well
Procedure: as §4
RBA experiments using Alzheimer’s disease brain homogenates (ADbh RBA) followed the same assay principle as the RBA with recombinant HTT protein, using 0.68 mg/mL homogenate (100 µg per well with 150 µL assay volume) in assay buffer PBS, 0.01% Pluronic F127 (Sigma. P2443) and 1% DMSO after compound addition. Competition experiments were conducted with 0.5 nM radioligand 4 and 50 µg homogenate per well. Incubation at room temperature was conducted for 20 min after compound addition and for 5 h after radioligand addition. For the competition format, raw cpm were normalized towards assay controls as before, to obtain inhibition between 0 and 100%. For saturation binding, raw cpm were converted into nM as before, using a calibration line of total added radioligand, and normalized to mg of added homogenate to finally obtain pmol/mg.

| SMILES | IC50 (Exon1-Q46 aggregates) [nM] | IC50 (Q46 aggregates) [nM] | heterologous competition with radioligand 4 ([1]; radioligand 4) | displacement of bound 5 [1] | co-registration with 6E10-positive beta amyloid plaques [2] | co-registration with AT8-positive phospho-Tau immunoreactivity [3] | Kd [4] [nM] | Bmax, AD brain homogenate [4] [pmol/mg] | displacement of 4 at 0.1 µM ([1]; radioligand 4, compound 0.1 µM) |
| --- | --- | --- | --- | --- | --- | --- | --- | --- | --- |
| FCCC1CCN(c2ccn3c(n2)nc2ccccc23)CC1 [Compound T808] | > 333 | > 333 | could not compete | ~ 50% | not with 6E10 antibody | co-registered with AT8 |  |  |  |
| CNc1ccc(-c2nc3ccc(O)cc3s2)cc1F [Flutemetamol] |  |  | complete displacement | complete displacement |  |  |  |  |  |
| CNc1ccc(-c2nc3ccc(O)cc3s2)cc1 [PiB] | 72.5 ± 0.4 | > 333 |  |  |  |  | 3.4 |  |  |
| [11CH3]Nc1ccc(-c2nc3ccc(O)cc3s2)cc1 [PiB] |  |  | complete displacement | complete displacement |  | not with AT8 immunoreactivity |  | 10.5 | fully displace |
